Results taken from ChEMBL document CHEMBL3430912, “GSK Tres Cantos Anti-Kinetoplastid Screening (TCAKS) Data”.

Columns and labels:
Trypanosoma cruzi [1] = experiment: GSK_TCAKS: pIC50 Trypanosoma cruzi viability assay using beta-GAL activity. This assay was run at single shot at 5uM compound concentration per well. The biological reagents consisted of NIH-3T3 host cells and trypomastigotes parasitic cells; both cell types were set to a 3.3 * 10^5 cells/mL dilution in assay DMEM by means of a CASY cell counter device using a 60um capillary. 6 uL of the mixture were dispensed per well (about 1 * 10^3 host-cells and 1 * 10^3 parasites) with a Multidrop Combi dispenser. […] In all wells, the percentage of DMSO never exceeded 0.5%. Plates incubated for four days at 37C, 5% CO2. The substrate used for the assay fluorescence intensity (FLINT) readout was resorufin-beta-D-galactopiranoside (Sigma-Aldrich) at 5uM per well. It was diluted in PBS supplemented with the soft detergent Igepal (Fluka).; type: functional, organism-based, Mus musculus; conditions: Tulahuen, NIH3T3
Trypanosoma cruzi [2] = experiment: (§1) GSK_TCAKS: pIC50 Trypanosoma cruzi Imaging: Infected Cells. […] Cells were then washed once with PBS before infection. T. cruzi trypomastigotes, collected at days 5 to 8 after infection from LLC-MK2 parasite infected cultures, were allowed to swim out for 4h at 37C from a centrifuged pellet (2,500 rpm/10 min/room temperature). Trypomastigotes were then collected and counted in a CASY Cell Counter. Trypomastigotes, in supplemented DMEM, were added to H9c2 cultures in a multiplicity of infection of 1 and incubated for 18 h. Cells were washed once with PBS before incubation of the infected H9c2 monolayer with trypsin (Life-Technologies) to detach cells from the flask. Cells were counted in a CASY Cell Counter using a 150 um capillary and their density set at 5 * 10^4 cells per mL in supplemented assay DMEM. Infected H9c2 were dispensed into 384-well poly-lysine coated assay plates at 50uL per well using a Multidrop Combi dispenser. After seeding them, the plates were incubated at 37C, 5% CO2 for 72h. Cultures were then fixed and stained by addition of 50 uL of a solution containing 8% formaldehyde and 4 uM DRAQ5 DNA dye (BioStatus, UK) per well. […] Five images were collected per well for reliable statistical analysis. Automated image analysis was performed with a script developed on Acapella High Content Imaging and Analysis Software (PerkinElmer). Output: percentage of infected cells per well as a second infection marker.; type: functional, organism-based, Rattus norvegicus; conditions: H9c2, 4 h
Trypanosoma cruzi [3] = experiment: GSK_TCAKS: pIC50 Trypanosoma cruzi Imaging: Amastigotes/Cell. […] Cells were then washed once with PBS before infection. T. cruzi trypomastigotes, collected at days 5 to 8 after infection from LLC-MK2 parasite infected cultures, were allowed to swim out for 4h at 37C from a centrifuged pellet (2,500 rpm/10 min/room temperature). Trypomastigotes were then collected and counted in a CASY Cell Counter. Trypomastigotes, in supplemented DMEM, were added to H9c2 cultures in a multiplicity of infection of 1 and incubated for 18 h. Cells were washed once with PBS before incubation of the infected H9c2 monolayer with trypsin (Life-Technologies) to detach cells from the flask. Cells were counted in a CASY Cell Counter using a 150 um capillary and their density set at 5 * 10^4 cells per mL in supplemented assay DMEM. Infected H9c2 were dispensed into 384-well poly-lysine coated assay plates at 50uL per well using a Multidrop Combi dispenser. After seeding them, the plates were incubated at 37C, 5% CO2 for 72h. Cultures were then fixed and stained by addition of 50 uL of a solution containing 8% formaldehyde and 4 uM DRAQ5 DNA dye (BioStatus, UK) per well. […] Five images were collected per well for reliable statistical analysis. Automated image analysis was performed with a script developed on Acapella High Content Imaging and Analysis Software (PerkinElmer). Output: number of amastigotes per cell as infection level measurement.; type: functional, organism-based, Rattus norvegicus; conditions: H9c2, 4 h
Trypanosoma cruzi [4] = experiment: as §1, with “H2C9” for “Trypanosoma cruzi”, “H9c2 Host Cardiomyocytes.” for “Infected Cells.”, “Number” for “percentage”, “H9c2 Host Cardiomyocytes nuclei to determine drug-related cytotoxicity.” for “infected cells per well as a second infection marker.”; type: functional, organism-based, Rattus norvegicus; conditions: H9c2, 4 h
Leishmania donovani [5] = experiment: GSK_TCAKS: pIC50 Leishmania donovani viability assay using fluorescence intensity. Assay plates (1536-well) were prepared by adding 30nL per well of compound. For single shot assay, the final compound concentration was 5uM. […] Briefly, eGFP LdBOB axenic amastigotes were harvested, fixed and counted in a CASY cell counter (Roche-Applied Science). A final concentration of 1.5 * 10^5 cells per well were prepared in amastigote media containing 500 U/mL penicillin/streptomycin (Invitrogen) and 6uL was dispensed to each experimental well using a Multidrop Combi dispenser (Thermo Scientific). 6uL of assay media was dispensed to control columns used as reference for 100% compound response. Following incubation for 72 h at 37C, 5% CO2, 2 uL of resazurin was added to each well at a final concentration of 0.5 mM in phosphate buffered saline (PBS) with IGEPAL (Sigma-Aldrich), 0.05% (v/v).; type: functional, organism-based
Leishmania donovani [6] = experiment: (§2) GSK_TCAKS: pIC50 Leishmania donovani Imaging: Infected Macrophages. Assay plates (384-well) were prepared by adding 250nL of compound to each well. For single shot assay, the final compound concentration was 5 uM. […] Automated image analysis was performed with a script developed on Acapella High Content Imaging and Analysis Software (PerkinElmer). Output: Percent of infected macrophage cells were reported for each well.; type: functional, organism-based, Homo sapiens; conditions: THP-1
Leishmania donovani [7] = experiment: as §2, with “Amastigotes/Macrophages.” for “Infected Macrophages.”, “Average number” for “Percent”, “amastigotes per” for “infected”, “cell” for “cells”; type: functional, organism-based, Homo sapiens; conditions: THP-1
Leishmania donovani [8] = experiment: as §2, with “THP-1 Host” for “Infected”, “THP-1 cell count” for “Percent of infected macrophage cells”; type: functional, organism-based, Homo sapiens
[9] = system: Trypanosoma brucei brucei; experiment: GSK_TCAKS: pIC50 Trypanosoma brucei viability assay using fluorescence intensity. Assay plates (1536-well) were prepared by dispensing 25nL of compound solution per well using an Echo acoustic dispenser (Labcyte).; type: functional, organism-based; conditions: Lister 427, 2 h
[10] = system: Trypanosoma brucei brucei; experiment: GSK_TCAKS: pIC50 Trypanosoma brucei viability assay using luminiscence. Assay plates (1536-well) were prepared. T. brucei cultures were harvested and counted in a CASY cell counter. A parasite suspension was prepared at a final concentration of 5 * 10^4 cells/mL in complete HMI9 medium and 6uL was dispensed to all wells containing compounds using a Multidrop Combi dispenser. 6uL of HMI9 media with 0.4% DMSO were dispensed to control columns. Plates were incubated for 24 h at 37C, 5% CO2 then tempered for 10 min at room temperature. ATP content was quantified by adding 4 uL of CellTiter-Glo Reagent (Promega) according to the manufacturer's instructions. Luminescence was measured using a ViewLux.; type: functional, organism-based; conditions: Lister 427, CASY
[11] = GSK_TCAKS: pIC50 HepG2 human cell line viability assay using luminiscence. […] Seeding density was checked to ensure that new mono-layers were not more than 50% confluent at the time of harvesting. Cell suspension was added to 500 mL of the same medium at a final density of 1.2 * 10^5 cells/mL. This cell suspension was dispensed (25 uL, 3000 cells per well) into 384-well clear-bottom plates using a Multidrop Combi dispenser. Prior to addition of the cell suspension, the screening compounds (250 nL) were pre-dispensed into the plates with an Echo liquid handler. Plates were incubated for 48 h at 37C, 5% CO2. After incubation, plates equilibrated at room temperature for 30 min before proceeding to develop the luminescent signal. The signal developer, CellTiter-Glo Reagent, was allowed to equilibrate at room temperature for 30 min and added to the plates (25uL per well) using a Multidrop Combi dispenser. Plates were left for 10 min at room temperature for stabilization and then read using a ViewLux.; type: toxicity, cell-based
[12] = molecular target: Sterol 14-alpha demethylase (Trypanosoma cruzi (strain CL Brener), UniProt Q7Z1V1); experiment: GSK_TCAKS: pIC50 CYP51 from Trypanosoma cruzi.; type: functional
Chain of Sterol 14-alpha demethylase (Q7Z1V1 whole entry): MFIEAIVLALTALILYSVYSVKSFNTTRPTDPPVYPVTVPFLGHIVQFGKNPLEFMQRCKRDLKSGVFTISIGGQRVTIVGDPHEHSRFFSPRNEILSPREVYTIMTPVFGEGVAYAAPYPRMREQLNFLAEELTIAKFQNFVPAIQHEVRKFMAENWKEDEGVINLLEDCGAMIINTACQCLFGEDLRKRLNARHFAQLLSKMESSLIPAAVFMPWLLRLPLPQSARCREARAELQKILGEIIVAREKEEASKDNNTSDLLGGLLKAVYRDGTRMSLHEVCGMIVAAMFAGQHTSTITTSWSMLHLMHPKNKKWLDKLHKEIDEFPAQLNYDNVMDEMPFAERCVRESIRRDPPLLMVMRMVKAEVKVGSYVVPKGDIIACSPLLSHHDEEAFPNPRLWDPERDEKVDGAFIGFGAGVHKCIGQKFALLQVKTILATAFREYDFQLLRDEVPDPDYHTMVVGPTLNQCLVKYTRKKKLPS

Row | SMILES | IC50 (Trypanosoma cruzi [1]) | IC50 (Trypanosoma cruzi [2]) | IC50 (Trypanosoma cruzi [3]) | IC50 (Trypanosoma cruzi [4]) | IC50 (Leishmania donovani [5]) | IC50 (Leishmania donovani [6]) | IC50 (Leishmania donovani [7]) | IC50 (Leishmania donovani [8]) | IC50 [9] | IC50 [10] | IC50 at 48 h [11] | IC50 [12]
1 | NCc1csc(Nc2cc(Oc3ccccc3)ncn2)n1 | 31.6 µM | 25.1 µM | 31.6 µM | > 50.1 µM | > 50.1 µM | 25.1 µM | 25.1 µM | > 50.1 µM | 0.631 µM | 0.794 µM | > 100 µM | 0.316 µM
2 | CN(CCOc1ccc(Cl)cc1)Cc1nc(N)nc(N(C)C)n1 | 5.01 µM | 10 µM | 7.94 µM | > 50.1 µM | 15.8 µM | 7.94 µM | 5.01 µM | > 50.1 µM | 25.1 µM | 15.8 µM | > 100 µM | 31.6 µM
3 | Cc1cc(=O)n2nc(Oc3ccc(C#N)cc3Cl)sc2n1 | 15.8 µM | 31.6 µM | 25.1 µM | 31.6 µM | 12.6 µM | 31.6 µM | 31.6 µM | 31.6 µM | 0.631 µM | 0.316 µM | 39.8 µM | > 100 µM
4 | O=C(c1ccc(O)c(Cl)c1)N1CCN(c2cnccn2)CC1 | > 50.1 µM | > 50.1 µM | 10 µM | > 50.1 µM | 0.316 µM | 5.01 µM | 3.16 µM | > 50.1 µM | > 39.8 µM | > 39.8 µM | > 100 µM | > 100 µM
5 | O=C1CN(Cc2ccco2)C2CS(=O)(=O)CC2N1c1ccc(Cl)cc1 (stereo unspecified) | > 50.1 µM | > 50.1 µM | > 50.1 µM | > 50.1 µM | > 50.1 µM | > 50.1 µM | > 50.1 µM | > 50.1 µM | 0.316 µM | 0.251 µM | > 100 µM | > 100 µM
6 | Cc1nc(-c2ccncc2)ncc1C(C)NC(=O)c1ccc(Cl)s1 (stereo unspecified) | 25.1 µM | 31.6 µM | 20 µM | > 50.1 µM | > 50.1 µM | > 50.1 µM | > 50.1 µM | > 50.1 µM | 1 µM | 1 µM | > 100 µM | 0.794 µM
7 | Cn1nc(C(=O)N2CCc3ccccc32)c2c1CCS(=O)(=O)C2 | 7.94 µM | 12.6 µM | 7.94 µM | > 50.1 µM | 3.98 µM | 3.98 µM | 1.58 µM | > 50.1 µM | 3.98 µM | 6.31 µM | > 100 µM | > 100 µM
8 | CCc1nn(-c2ncc(F)c(NC(C)C)n2)c(N)c1C1CCCCC1 | 3.55 µM | 3.16 µM | 1.58 µM | 1 µM | 3.16 µM | 3.16 µM | 1.58 µM | 15.8 µM | 10 µM | 15.8 µM | 31.6 µM | > 100 µM
9 | C[C@@H](Oc1cc(-n2cnc3cc(N)ccc32)sc1C(N)=O)c1ccccc1Cl | 1.26 µM | 20 µM | 5.01 µM | 1 µM | 3.16 µM | 31.6 µM | 20 µM | 25.1 µM | 0.251 µM | 0.794 µM | 20 µM | 3.16 µM
10 | O=C(NCc1nnc2n1CCCCC2)c1csc(-c2ccccc2)n1 | 2.51 µM | 2 µM | 2 µM | > 50.1 µM | > 50.1 µM | > 50.1 µM | > 50.1 µM | > 50.1 µM | 0.316 µM | 0.398 µM | > 100 µM | > 100 µM
11 | Cc1nc2c(-c3nc(-c4ccccc4N)n[nH]3)cccn2c1C | 4.47 µM | 2.51 µM | 1.58 µM | 5.01 µM | 6.31 µM | 1.58 µM | 1 µM | 7.94 µM | 1 µM | 2.51 µM | 15.8 µM | 3.16 µM
12 | Cc1nc2c(-c3nc(-c4ccc(N)cc4)n[nH]3)cccn2c1C | 6.31 µM | > 50.1 µM | > 50.1 µM | 10 µM | 3.16 µM | 2 µM | 1.58 µM | 12.6 µM | 12.6 µM | 25.1 µM | 15.8 µM | > 100 µM
13 | OC[C@@H](Nc1nccc(-c2c(-c3ccc(F)cc3)ncn2C2CCNCC2)n1)c1ccccc1 | 31.6 µM | 12.6 µM | 12.6 µM | 2 µM | > 50.1 µM | 31.6 µM | 31.6 µM | 31.6 µM | 0.398 µM | 0.631 µM | 100 µM | 25.1 µM
14 | Cc1ccc2onc(Nc3ccnc(Nc4cccc(S(C)(=O)=O)c4)n3)c2c1 | 3.98 µM | 0.631 µM | 0.398 µM | 5.01 µM | 5.01 µM | 2 µM | 1 µM | 20 µM | 6.31 µM | 7.94 µM | 50.1 µM | 39.8 µM
15 | Cn1nc(-c2ccc(NC(=O)Cc3ccccc3Cl)cc2)c2c(N)ncnc21 | 2 µM | 1.26 µM | 1 µM | 7.94 µM | > 50.1 µM | > 50.1 µM | > 50.1 µM | > 50.1 µM | 0.398 µM | 0.251 µM | > 100 µM | 63.1 µM
16 | Cc1cc(Nc2ccc(C#N)c(Cl)c2C)[nH]n1 | 25.1 µM | > 50.1 µM | 20 µM | > 50.1 µM | 50.1 µM | > 50.1 µM | > 50.1 µM | 20 µM | 0.00794 µM | 0.251 µM | > 100 µM | 39.8 µM
17 | Cc1c(Nc2cc(C3CC3)n[nH]2)ccc(C#N)c1Cl | 2.51 µM | 25.1 µM | 15.8 µM | 10 µM | 20 µM | 39.8 µM | 25.1 µM | 25.1 µM | 0.398 µM | 0.631 µM | 39.8 µM | 20 µM
18 | CCOC(=O)c1cn[nH]c1S(=O)(=O)N1CCC1c1ccccc1 (stereo unspecified) | > 50.1 µM | > 50.1 µM | > 50.1 µM | > 50.1 µM | > 50.1 µM | > 50.1 µM | > 50.1 µM | > 50.1 µM | 0.631 µM | 0.794 µM | > 100 µM | 50.1 µM
